Reference: ChEMBL document CHEMBL1142840, “4-Phenylcoumarins as HIV transcription inhibitors” (Bioorg Med Chem Lett, 2005)

How the values were obtained:
[1] = tested on: HeLa; assay: Anti-HIV activity (at 50 uM) against human HeLa-Tat-Luc cells transfected with HIV-1 LTR activated by Tat protein; assay type: functional
[2] = tested on: HeLa; assay: Anti-HIV activity (at 50 uM) against human HeLa cells through a HeLa-Tet-ON assay; U= unspecific; assay type: functional, cell-based
[3] = Anti-HIV activity (at 50 uM) against Jurkat-derived 5.1 cell line stably transfected with HIV-LTR activated by TNF alpha; assay type: functional
[4] = tested on: MT2; assay: Toxicity of compound against human MT-2 cell line at the concentration of 50 uM; assay type: functional
[5] = tested on: HeLa; assay: Anti-HIV activity (at 25 uM) against human HeLa-Tat-Luc cells transfected with HIV-1 LTR activated by Tat protein; assay type: functional
[6] = Anti-HIV activity (at 25 uM) against Jurkat-derived 5.1 cell line stably transfected with HIV-LTR activated by TNF alpha; assay type: functional
[7] = molecular target: Human immunodeficiency virus type 1 reverse transcriptase (Human immunodeficiency virus 1, UniProt Q72547); assay: Inhibitory concentration against recombinant human immunodeficiency virus 1 reverse transcriptase
[8] = tested on: HeLa; assay: Anti-HIV activity (at 50 uM) against human HeLa cells through a HeLa-Tet-ON assay; U= specific; assay type: functional, cell-based
[9] = tested on: HeLa; assay: Anti-HIV activity (at 50 uM) against human HeLa cells through a HeLa-Tet-ON assay; S= specific; assay type: functional, cell-based

Structure (SMILES)	inhibition at 50 µM [1]	inhibition [2]	inhibition at 50 µM [3]	Cell death [4]	inhibition at 25 µM [5]	inhibition at 25 µM [6]	IC50 [7]	inhibition [8]	Inhibition [6]	inhibition [9]
CC(C)C(=O)c1c2c(c3oc(=O)cc(-c4ccccc4)c3c1O)C[C@@H](C(C)(C)O)O2 [MESUOL CYCLO F]	59.5%	Unspecific	59.4%	79.5%	–	–	–	–	–	–
CC(C)C(=O)c1c2c(c3oc(=O)cc(-c4ccccc4)c3c1O)C=CC(C)(C)O2 [MESUAGIN]	0%	–	20.2%	4.5%	0%	10.8%	32.1 µM	–	–	–
CC(C)=CCc1c(O)c(C(=O)C(C)C)c(O)c2c(-c3ccccc3)cc(=O)oc12 [MESUOL]	71.3%	Unspecific	77.9%	22.5%	11.5%	67.1%	2.5 µM	Specific	71%	–
CC1CN(C2CC(N=[N+]=[N-])[C@@H](CO)C2)C(=O)NC1=O (stereo partly drawn)	–	–	–	>100%	–	–	0.01 µM	–	–	–
CC(C)=CCc1c(O)c(C(=O)C(C)C)c2oc(=O)cc(-c3ccccc3)c2c1O [ISOMESUOL]	34.3%	–	67.1%	11.5%	36.7%	67%	31.9 µM	–	–	Specific
CC(C)=CCc1c(O)cc(O)c2c(-c3ccccc3)cc(=O)oc12	15.4%	–	84.5%	34.4%	–	33.4%	11.2 µM	–	–	–
CC(C)CC(=O)c1c2c(c3oc(=O)cc(-c4ccccc4)c3c1O)C=CC(C)(C)O2 [MAMMEIGIN]	3%	–	15.7%	4.7%	2%	5.9%	124 µM	–	–	–
CC(C)CC(=O)c1c(O)cc(O)c2c(-c3ccccc3)cc(=O)oc12 [ISODISPAR B]	69.4%	–	85.6%	17.2%	42%	81%	6.9 µM	–	–	Specific
CC(C)CC(=O)c1c2c(c3oc(=O)cc(-c4ccccc4)c3c1O)C[C@@H](C(C)(C)O)O2 [CYCLOMAMMEISIN]	22%	Unspecific	86.3%	34.1%	–	66.9%	–	–	–	–
COc1c(C(=O)CC(C)C)c(O)c(CC=C(C)C)c2oc(=O)cc(-c3ccccc3)c12	13.5%	–	43.6%	4.8%	–	–	22.2 µM	–	–	–
CC(C)=CCc1c(O)c(C(O)CC(C)C)c(O)c2c(-c3ccccc3)cc(=O)oc12 (stereo not drawn)	47.6%	Unspecific	60%	8%	–	–	–	–	–	–
CCC(C)C(=O)c1c(O)c(CC=C(C)C)c2oc(=O)cc(-c3ccccc3)c2c1O (stereo not drawn)	86.7%	Unspecific	85.2%	28.8%	–	–	–	–	–	–
CC(=O)Oc1c(C(=O)CC(C)C)c(OC(C)=O)c2c(-c3ccccc3)cc(=O)oc2c1CC=C(C)C [MAMMEISIN DIACETATE]	50.4%	Unspecific	81.1%	15.7%	–	–	–	–	–	–
CC(C)=CCc1c(O)c(C(=O)CC(C)C)c(O)c2c(-c3ccccc3)cc(=O)oc12 [MAMMEISIN]	53.1%	Unspecific	58.8%	16.6%	–	–	–	–	–	–
CC(C)=C(O)Cc1c(O)c(C(=O)CC(C)C)c(O)c2c(-c3ccccc3)cc(=O)oc12	70.4%	–	53.1%	18.5%	43.6%	55.4%	0.5 µM	–	–	Specific
